Drawing on US11566030B2, “Substituted 2,6-dihydropyrrolo[3,4-c]pyrazoles as pyruvate kinase activators” (priority 2021, dated 2023), this text covers AC50, Emax and PKR % activation for 23 compounds.

The structures appear in SMILES notation. Like-named read-outs stand apart in the source and are kept apart here.

The target of this test is T1, Human pyruvate kinase R (PKR) (Homo sapiens, UniProt P30613).
T1 construct: Human pyruvate kinase R (PKR), residues 14-574; 6xHis-8xArg-SUMO (N, cleaved yes); host or cells: E. coli
T1 sequence (P30613 14-574): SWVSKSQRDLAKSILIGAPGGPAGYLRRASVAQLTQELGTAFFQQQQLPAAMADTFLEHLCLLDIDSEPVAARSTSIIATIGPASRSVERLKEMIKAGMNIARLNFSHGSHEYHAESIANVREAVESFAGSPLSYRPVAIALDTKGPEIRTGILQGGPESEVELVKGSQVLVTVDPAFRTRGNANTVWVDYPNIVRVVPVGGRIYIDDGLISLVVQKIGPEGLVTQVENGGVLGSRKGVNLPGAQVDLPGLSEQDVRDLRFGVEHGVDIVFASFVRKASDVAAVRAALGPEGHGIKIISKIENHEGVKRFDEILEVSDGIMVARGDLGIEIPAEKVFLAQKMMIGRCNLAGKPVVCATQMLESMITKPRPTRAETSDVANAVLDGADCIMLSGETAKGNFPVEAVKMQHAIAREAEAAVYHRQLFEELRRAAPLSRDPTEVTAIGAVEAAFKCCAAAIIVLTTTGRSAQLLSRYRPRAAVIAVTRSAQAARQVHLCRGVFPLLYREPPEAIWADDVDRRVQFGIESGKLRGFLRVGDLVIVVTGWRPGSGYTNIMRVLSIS
Nature of the test: Biochemical assay for activation of pyruvate kinase R (Kinase-Glo luminescence, ATP generation). The settings on record: for Emax: read-out: PKR % activation, maximal activation level achieved with each compound relative to the activation level achieved by AG-348 @ 10 μM. How it is done:
Human pyruvate kinase R (PKR), residues 14-574, and human pyruvate kinase M2, residues 1-531, were cloned into expression plasmids and obtained from ATUM Bio (Newark, Calif.). Proteins were translated as fusions with 6×-His,8×-Arg, and SUMO at the N-terminus. A third construct of human PKR was truncated, residues 50-574, and similarly cloned for use in crystallography experiments. All proteins were cloned, expressed in E. coli, and purified using similar protocols. Cells were grown at 30° C. in Luria-Bertani broth supplemented with 0.4% glucose to OD600=0.8 and induced with 0.4 mM IPTG at 16° C. for 18 hours. Cells were harvested by centrifugation, resuspended in 50 mM potassium phosphate pH 8.0, 500 mM NaCl, 25 mM imidazole pH 8.0, and 3 mM β-mercaptoethanol. Cells were lysed using a LM20 microfluidizer from Microfluidics (Westwood, Mass.). The crude lysate was immediately supplemented with 0.2 mM phenylmethylsulfonyl fluoride (PMSF) and centrifuged at 20,000 g for 20 minutes. The soluble fraction was subsequently incubated with 2 mL Ni-NTA (GE Healthcare) per 1,000 ODs for 1 hour at 4° C. Following incubation with the Ni-NTA resin, lysate was removed by pelleting resin at 2,500 g for 3 minutes and washed 3 times with 9 bed volumes of 50 mM potassium phosphate pH 8.0, 500 mM NaCl, 25 mM imidazole, and 3 mM β-mercaptoethanol. Following the batch wash Ni-NTA resin was loaded onto a gravity column and His-tagged protein was eluted with 6 bed volumes of 10 mM Tris/HCl pH 8.0, 200 mM NaCl, 500 mM imidazole, and 3 mM β-mercaptoethanol. Eluted protein was dialyzed overnight against 10 mM Tris/HCl pH 8.0, 200 mM NaCl, and 1 mM DTT and the 6×-His-8×-Arg-SUMO-tag was cleaved using a 20:1 molar ratio of protein: 3C protease. The protein was purified by anion exchange chromatography on a HiTrapQ or MonoQ 10/100 GL column (GE Healthcare) via a linear NaCl gradient and twice by size exclusion chromatography using a Superdex S200 26/60 column (GE Healthcare) run in 10 mM Tris/HCl pH 8.0, 200 mM NaCl, 10 mM MgCl2, 1 mM DTT. Proteins were concentrated to −12 mg/mL for crystallization and flash frozen for storage.
Biochemical assay for Activation of Pyruvate Kinase R
Activation of pyruvate kinase R (PKR) and pyruvate kinase M2 (PKM2) were measured using a luminescence based measurement of ATP generation and the Kinase-Glo luminescent kinase reagent kit.
Background: Kinase-Glo reads ATP consumption through a luciferase reaction.

Where [1] appears, read: PKR AC50 (nM), 0.1 nM PKR, 0.3 mM ADP, 0.1 mM PEP, 1% DMSO.

As for `O=C([C@@H](CO)c1ncccc1F)N1Cc2cn(S(=O)(=O)c3cnn(CC(F)F)c3)nc2C1` (single isomer, unassigned) [Compound 43], the Emax stood at 108%. Half-maximal activity under setting [1] (AC50) was put at 29 nM.
With `O=C([C@H](CO)c1ccccc1OCCO)N1Cc2cn(S(=O)(=O)c3cnn(CC(F)F)c3)nc2C1` (single isomer, unassigned) [Compound 109], the activity was half-maximal at 26 nM (AC50) and the Emax turned out to be 63%.
As for `Cc1nn(CC(F)F)c(C)c1S(=O)(=O)n1cc2c(n1)CN(C(=O)[C@@H](CO)c1ccccc1)C2` [Compound 88, (2R)-1-[2-[1-(2,2-difluoroethyl)-3,5-dimethylpyrazol-4-ylsulfonyl]-4H,6H-pyrrolo[3,4-c]pyrazol-5-yl]-3-hydroxy-2-phenylpropan-1-one], the Emax came to 0%. The compound further displayed an AC50 under setting [1] of 680 nM.
Take `Cc1nc(C)c(S(=O)(=O)n2cc3c(n2)CN(C(=O)[C@H](CO)c2ccccc2)C3)s1` [Compound 15, (2S)-1-{2-[(2,4-dimethyl-1,3-thiazol-5-yl)sulfonyl]-2H,4H,5H,6H-pyrrolo[3,4-c]pyrazol-5-yl}-3-hydroxy-2-phenylpropan-1-one]: the AC50 was determined as 44 nM and the Emax stood at 15%.
Turning to `O=C([C@@H](CO)c1ccccc1)N1Cc2cn(S(=O)(=O)c3cnn(CC(F)F)c3)nc2C1` [Compound 122, (2R)-1-(2-{[1-(2,2-difluoroethyl)-1H-pyrazol-4-yl]sulfonyl}-2H,4H,5H,6H-pyrrolo[3,4-c]pyrazol-5-yl)-3-hydroxy-2-phenylpropan-1-one], the Emax stood at 120%. The compound further registered an AC50 under setting [1] of 240 nM.
Regarding `Cc1cn(CC(F)F)nc1S(=O)(=O)n1cc2c(n1)CN(C(=O)C1(c3ncccc3Cl)COC1)C2` [Compound 82, 3-chloro-2-(3-{2-[1-(2,2-difluoroethyl)-4-methylpyrazol-3-ylsulfonyl]-4H,6H-pyrrolo[3,4-c]pyrazole-5-carbonyl}oxetan-3-yl)pyridine], the Emax came to 19%. Further, the AC50 under setting [1] turned out to be 8.3 nM.
Regarding `Cc1c(S(=O)(=O)n2cc3c(n2)CN(C(=O)[C@H](CO)c2ccccc2F)C3)cnn1CCF` [Compound 96], the AC50 stood at 6.4 nM and the Emax stood at 93%.
`C[C@H](O)[C@@H](C(=O)N1Cc2cn(S(=O)(=O)c3cnn(CC(F)(F)F)c3)nc2C1)c1ccccc1` [Compound 50, (2S,3S)-3-hydroxy-2-phenyl-1-{2-[1-(2,2,2-trifluoroethyl)pyrazol-4-ylsulfonyl]-4H,6H-pyrrolo[3,4-c]pyrazol-5-yl}butan-1-one]: the Emax was 89%. Also, the AC50 under setting [1] stood at 82 nM.
As to `O=C([C@H](O)c1ccccc1)N1Cc2cn(S(=O)(=O)c3cnn(CC(F)F)c3)nc2C1` [Compound 4, (2R)-1-(2-{[1-(2,2-difluoroethyl)-1H-pyrazol-4-yl]sulfonyl}-2H,4H,5H,6H-pyrrolo[3,4-c]pyrazol-5-yl)-2-hydroxy-2-phenylethan-1-one], half-maximal activity (AC50) was put at 22 nM and the Emax was 62%.
As to `O=C([C@@H](CO)c1cccc(F)c1F)N1Cc2cn(S(=O)(=O)c3cnn(CC(F)F)c3)nc2C1` [Compound 54, (2R)-1-{2-[1-(2,2-difluoroethyl)pyrazol-4-ylsulfonyl]-4H,6H-pyrrolo[3,4-c]pyrazol-5-yl}-2-(2,3-difluorophenyl)-3-hydroxypropan-1-one], the Emax was determined as 108%. In addition, the activity under setting [1] was half-maximal at 260 nM (AC50).
The like results for `Cc1c(S(=O)(=O)n2cc3c(n2)CN(C(=O)[C@@H](CO)c2ccccc2Cl)C3)cnn1CC(F)F` [Compound 102, (2R)-2-(2-chlorophenyl)-1-{2-[1-(2,2-difluoroethyl)-5-methylpyrazol-4-ylsulfonyl]-4H,6H-pyrrolo[3,4-c]pyrazol-5-yl}-3-hydroxypropan-1-one] were, in that order, 126% and 690 nM.
For the compound `O=C([C@@H](CO)c1ccccc1F)N1Cc2cn(S(=O)(=O)c3cnn(CCF)c3)nc2C1` [Compound 35, (2R)-1-[2-[1-(2-fluoroethyl)pyrazol-4-ylsulfonyl]-4H,6H-pyrrolo[3,4c]pyrazol-5-yl]-2-(2-fluorophenyl)-3-hydroxypropan-1-one], the Emax was 125%. This compound had an AC50 under setting [1] of 130 nM.
`Cc1nc(CCC(F)(F)F)sc1S(=O)(=O)n1cc2c(n1)CN(C(=O)[C@H](CO)c1ccccc1)C2` [Compound 20, (2S)-3-hydroxy-1-(2-{[4-methyl-2-(3,3,3-trifluoropropyl)-1,3-thiazol-5-yl]sulfonyl}-2H,4H,5H,6H-pyrrolo[3,4-c]pyrazol-5-yl)-2-phenylpropan-1-one]: the AC50 turned out to be 720 nM and the Emax was 7%.
As for `Cc1cn(CC(F)(F)F)nc1S(=O)(=O)n1cc2c(n1)CN(C(=O)[C@@H](CO)c1ccccc1F)C2` [Compound 69, (2R)-2-(2-fluorophenyl)-3-hydroxy-1-{2-[4-methyl-1-(2,2,2-trifluoroethyl)pyrazol-3-ylsulfonyl]-4H,6H-pyrrolo[3,4-c]pyrazol-5-yl}propan-1-one], the Emax turned out to be 4%. Further, under setting [1], half-maximal activity (AC50) was put at 15 nM.
`O=C([C@H](CO)c1ccccc1F)N1Cc2cn(S(=O)(=O)c3cnn(CC(F)F)c3)nc2C1` [Compound 2, (2S)-1-(2-{[1-(2,2-difluoroethyl)-1H-pyrazol-4-yl]sulfonyl}-2H,4H,5H,6H-pyrrolo[3,4-c]pyrazol-5-yl)-2-(2-fluorophenyl)-3-hydroxypropan-1-one]: the Emax came out at 110%. Besides, under setting [1], the AC50 was determined as 4.7 nM.
`O=C([C@H](OCCO)c1ccccc1F)N1Cc2cn(S(=O)(=O)c3ccn(CC(F)(F)F)n3)nc2C1` (single isomer, unassigned) [Compound 86]: under setting [1], the AC50 came out at 1.1 nM. The PKR % activation (maximal activation level achieved with each compound relative to the activation level achieved by AG-348 @ 10 μM) was 0%.
`O=C([C@H](CO)c1ccccc1)N1Cc2cn(S(=O)(=O)c3cnn(CC(F)F)c3)nc2C1` [Compound 1, (2S)-1-(2-{[1-(2,2-difluoroethyl)-1H-pyrazol-4-yl]sulfonyl}-2H,4H,5H,6H-pyrrolo[3,4-c]pyrazol-5-yl)-3-hydroxy-2-phenylpropan-1-one]: the Emax was 97%. Also, under setting [1], half-maximal activity (AC50) was put at 5.4 nM.
In the same order, the values of `O=C([C@H](CO)c1ncccc1F)N1Cc2cn(S(=O)(=O)c3cnn(CC(F)F)c3)nc2C1` (single isomer, unassigned) [Compound 42] are 102% and 2100 nM.
Consider `O=C([C@H](CO)c1ccccc1Cl)N1Cc2cn(S(=O)(=O)c3cnn(CC(F)F)c3)nc2C1` [Compound 9, (2S)-2-(2-chlorophenyl)-1-[2-[1-(2,2-difluoroethyl)pyrazol-4-ylsulfonyl]-4H,6H-pyrrolo[3,4-c]pyrazol-5-yl]-3-hydroxypropan-1-one], for which the AC50 is 3 nM and the Emax amounted to 126%.
As for `Cc1c(S(=O)(=O)n2cc3c(n2)CN(C(=O)[C@H](CO)c2ccccc2Cl)C3)cnn1CC(F)F` [Compound 101, (2S)-2-(2-chlorophenyl)-1-{2-[1-(2,2-difluoroethyl)-5-methylpyrazol-4-ylsulfonyl]-4H,6H-pyrrolo[3,4-c]pyrazol-5-yl}-3-hydroxypropan-1-one], the Emax was 123%. For the same compound, the activity under setting [1] was half-maximal at 8.5 nM (AC50).
The like results for `O=C(N1Cc2cn(S(=O)(=O)c3ccn(CC(F)(F)F)n3)nc2C1)C1(c2ncccc2Cl)COC1` [Compound 65, (3-(3-chloropyridin-2-yl)oxetan-3-yl)(2-((1-(2,2,2-trifluoroethyl)-1H-pyrazol-3-yl)sulfonyl)-2,6-dihydropyrrolo[3,4-c]pyrazol-5(4H)-yl)methanone] were, in that order, 42% and 110 nM.
The like results for `O=C([C@@H](O)c1ccccc1F)N1Cc2cn(S(=O)(=O)c3cnn(CC(F)F)c3)nc2C1` [Compound 37, (2S)-1-[2-[1-(2,2-difluoroethyl)pyrazol-4-ylsulfonyl]-4H,6H-pyrrolo[3,4-c]pyrazol-5-yl]-2-(2-fluorophenyl)-2-hydroxyethanone] were, in that order, 126% and 960 nM.
In the case of `O=C([C@H](CO)c1cccc(F)c1F)N1Cc2cn(S(=O)(=O)c3cnn(CC(F)F)c3)nc2C1` [Compound 53, (2S)-1-{2-[1-(2,2-difluoroethyl)pyrazol-4-ylsulfonyl]-4H,6H-pyrrolo[3,4-c]pyrazol-5-yl}-2-(2,3-difluorophenyl)-3-hydroxypropan-1-one], the Emax is 100%. Under setting [1], this compound came in with an AC50 of 5.2 nM.

The term AC50 denotes the concentration at which the activity in the assay is half-maximal.
